Laboratory results: patent US20120328569A1, “INHIBITORS OF HEPATITIS C VIRUS NS5B POLYMERASE” (priority 2010, published 2012)

The molecules below were run on HCV genotype 1b replicon (assay: HCV replicon assay, cell ELISA with antibody to replicon-encoded NS3/4A (genotype 1b replicon)). Details: Hepatitis C virus, 96 h, read-out: 1b IC50(nM), HCV genotype 1b replicon; 96 hours incubation; NS3/4A cell ELISA.
Format: cell-based, hepatitis C virus
Protocol: The HCV NS5B inhibitory activity of the present compounds may be tested using assays known in the art. The HCV NS5B polymerase inhibitors described herein have activities in a genotype 1b replicon assay as described in the Examples. The assay is performed by incubating a replicon harboring cell-line in the presence of inhibitor for a set period of time and measuring the effect of the inhibitor on HCV replicon replication either directly by quantifying replicon RNA level, or indirectly by measuring enzymatic activity of a co-encoded reporter enzyme such as luciferase or β-lactamase. By performing a series of such measurements at different inhibitor concentrations, the effective inhibitory concentration of the inhibitor (EC50 or EC90) is determined. See Jan M. Vrolijk et al., A replicons-based bioassay for the measurement of interferons in patients with chronic hepatitis C, 110 J. VIROLOGICAL METHODS 201 (2003). Such assays may also be run in an automated format for high through-put screening. See Paul Zuck et al., A cell-based β-lactamase reporter gene assay for the identification of inhibitors of hepatitis C virus replication, 334 ANALYTICAL BIOCHEMISTRY 344 (2004).
Measurement of inhibition by compounds was performed using the HCV replicon system. Several different replicons encoding different HCV genotypes or mutations were used. In addition, potency measurements were made using different formats of the replicon assay, including different ways of measurements and different plating formats. See Jan M. Vrolijk et al., A replicons-based bioassay for the measurement of interferons in patients with chronic hepatitis C, 110 J. VIROLOGICAL METHODS 201 (2003); Steven S. Carroll et al., Inhibition of Hepatitis C Virus RNA Replication by 2′-Modified Nucleoside Analogs, 278(14) J. BIOLOGICAL CHEMISTRY 11979 (2003). However, the underlying principles are common to all of these determinations, and are outlined below.
Stable neomycin phosphotransferase encoding replicons-harboring cell lines were used, so all cell lines were maintained under G418 selection prior to the assay. Potency was determined using a cell ELISA assay with an antibody to the replicons encoded NS3/4a protease. See Caterina Trozzi et al., In Vitro Selection and Characterization of Hepatitis C Virus Serine Protease Variants Resistant to an Active-Site Peptide Inhibitor, 77(6) J. Virol. 3669 (2003). To initiate an assay, replicon cells were plated in the presence of a dilution series of test compound in the absence of G418. Typically, the assays were performed in a 96-well plate formate for manual operation, or a 384-well plate format for automated assay. Replicon cells and compound were incubated for 96 hours. At the end of the assay, cells were washed free of media and compound, and the cells were then lysed. RNA was quantified indirectly through detection of replicon-encoded NS3/4A protein levels, through an ELISA-based assay with an antibody specific for NS3/4A. IC50 determinations were calculated as a percentage of a DMSO control by fitting the data to a four-parameter fit function and the data obtained is provided in the table below.

In order of falling IC50:
1. CNC(=O)c1c(-c2ccc(F)cc2)oc2cc(N(C[C@@H](C)NC(=O)[C@@H](NC(=O)OC)C(C)C)S(C)(=O)=O)c(-c3cccc(-c4nc5ncccc5o4)c3)cc12 [Example 836]  82 nM
2. CNC(=O)c1c(-c2ccc(F)cc2)oc2cc(N(C)S(C)(=O)=O)c(-c3ccc(OC)c(-c4nc5c(C(=O)Nc6ccccc6)cccc5o4)c3)cc12 [Example 638]  29.8 nM
3. CNC(=O)c1ccc(-c2cc3c(C(=O)NC)c(-c4ccc(F)cc4)oc3cc2N(C)S(C)(=O)=O)cc1-c1nc2c(F)cccc2o1 [Example 656]  8.41 nM
4. CNC(=O)c1c(-c2ccc(F)cc2)oc2cc(N(CC3(C#N)CC3)S(C)(=O)=O)c(-c3ccc(OC)c(-c4nc5c(F)cc(F)cc5o4)c3)cc12 [Example 738]  7.62 nM
5. CNC(=O)c1c(-c2ccc(F)cc2)oc2cc(N(C)S(C)(=O)=O)c(-c3cccc(-c4cc5c(o4)CCN(C(C)=O)C5)c3)cc12 [Example 517]  7 nM
6. CNC(=O)c1c(-c2ccc(F)cc2)oc2cc(N(Cc3cccnc3)S(C)(=O)=O)c(-c3ccc(OC)c(-c4nc5c(C#N)cccc5o4)c3)cc12 [Example 708]  3.95 nM
7. CNC(=O)c1c(-c2ccc(F)cc2)oc2cc(N(CCCF)S(C)(=O)=O)c(-c3cccc(-c4nc5ncccc5o4)c3)cc12 [Example 868]  1.3 nM

Same assay, conditions: Hepatitis C virus, 96 h, read-out: Replicon 1b IC50 (nM), HCV genotype 1b replicon cells, 96 hours incubation, NS3/4A ELISA readout

In order of rising IC50:
1. CNC(=O)c1c(-c2ccc(F)cc2)oc2cc(N(C)S(C)(=O)=O)c(-c3ccc(OC)c(-c4nc5c(F)cccc5o4)c3)cc12 [Example 402, 5-(3-(4-fluorobenzo[d]oxazol-2-yl)-4-methoxyphenyl)-2-(4-fluorophenyl)-N-methyl-6-(N-methylmethylsulfonamido)benzofuran-3-carboxamide]  0.9 nM
2. CNC(=O)c1c(-c2ccc(F)cc2)oc2cc(N(C)S(C)(=O)=O)c(-c3cc(OC)cc(-c4cc5cccnc5[nH]4)c3)cc12 [Compound 378]  1.8 nM
3. CNC(=O)c1c(-c2ccc(F)cc2)oc2cc(N(C)S(C)(=O)=O)c(-c3cc(C)cc(-c4nc5ncccc5o4)c3)cc12 [Example 210]  1.9 nM
4. CNC(=O)c1c(-c2ccc(F)cc2)oc2cc(N(CCN(C)C)S(C)(=O)=O)c(-c3cccc(-c4nc5ncccc5o4)c3)cc12 [Compound 398]  2.4 nM
5. CNC(=O)c1c(-c2ccc(F)cc2)oc2cc(N(C)S(C)(=O)=O)c(-c3cccc(-c4nc5nccnc5s4)c3)cc12 [Example 272]  3 nM
6. CNC(=O)c1c(-c2ccc(F)cc2)oc2cc(N(C)S(C)(=O)=O)c(-c3ccc(F)c(-c4nc5ccncc5[nH]4)c3)cc12 [Example 334]  3.3 nM
7. CNC(=O)c1c(-c2ccc(F)cc2)oc2cc(N(C)S(C)(=O)=O)c(-c3ccc(OC)c(-c4cc5ccccc5[nH]4)c3)cc12 [Compound 373]  3.9 nM
8. CNC(=O)c1c(-c2ccc(F)cc2)oc2cc(N(C)S(C)(=O)=O)c(-c3cc(F)cc(-c4nc5ccc(C)cc5o4)c3)cc12 [Example 166]  4.4 nM
9. CNC(=O)c1c(-c2ccc(F)cc2)oc2cc(N(C)S(C)(=O)=O)c(-c3cc(OC)cc(-c4nc5ccc(OC)nc5[nH]4)c3)cc12 [Example 315]  4.5 nM
10. CNC(=O)c1c(-c2ccc(F)cc2)oc2cc(N(C)S(C)(=O)=O)c(-c3cccc(-c4nc5ccccc5[nH]4)c3)cc12 [Example 151, 5-[3-(1H-benzimidazol-2-yl)phenyl]-2-(4-fluorophenyl)-N-methyl-6-[methyl (methylsulfonyl)amino]-1-benzofuran-3-carboxamide]  5 nM
11. CNC(=O)c1c(-c2ccc(F)cc2)oc2cc(N(C)S(C)(=O)=O)c(-c3cccc(-c4[nH]c5ccccc5c4Cl)c3)cc12 [Example 381]  5.1 nM
12. CNC(=O)c1c(-c2ccc(F)cc2)oc2cc(N(C)S(C)(=O)=O)c(-c3cccc(-c4cc5cccc(Cl)c5[nH]4)c3)cc12 [Compound 371]  5.8 nM
13. CNC(=O)c1c(-c2ccc(F)cc2)oc2cc(N(C)S(C)(=O)=O)c(-c3cccc(-c4nc5ncncc5o4)c3)cc12 [Example 241]  9.5 nM
14. CNC(=O)c1c(-c2ccc(F)cc2)oc2cc(N(C)S(C)(=O)=O)c(-c3ccc(F)c(-c4nc5ccc(C)cc5s4)c3)cc12 [Example 294]  10 nM
